In brackets after ≈: the same amount, converted by molar mass. Like-named read-outs stand apart in the source and are kept apart here.
Columns and labels:
Assay in all cases: MIC, microdilution broth method (NCCLS)
Format in all cases: cell-based
[1] = tested on: H. influenzae ATCC49247; settings: Haemophilus influenzae, read-out: MIC Values, E: H. influenzae ATCC49247
Method: (§1) Minimal inhibitory concentration (MIC) has been an indicator of in vitro antibacterial activity widely used in the art. The in vitro antimicrobial activity of the compounds was determined by the microdilution broth method following the test method from the National Committee for Clinical Laboratory Standards (NCCLS). This method is described in the NCCLS Document M7-A4, Vol.17, No.2, “Methods for Dilution Antimicrobial Susceptibility Test for Bacteria that Grow Aerobically—Fourth Edition”, which is incorporated herein by reference.
(§2) In this method two-fold serial dilutions of drug in cation adjusted Mueller-Hinton broth are added to wells in microdilution trays. The test organisms are prepared by adjusting the turbidity of actively growing broth cultures so that the final concentration of test organism after it is added to the wells is approximately 5×10^4 CFU/well.
(§3) Following inoculation of the microdilution trays, the trays are incubated at 35 °C for 16-20 hours and then read. […] The amount of growth in the wells containing the test compound is compared with the amount of growth in the growth-control wells (no test compound) used in each tray. As set forth in Table 1, compounds of the present invention were tested against a variety of Gram positive and Gram negative pathogenic bacteria resulting in a range of activities depending on the organism tested.

[2] = tested on: S. pneumoniae ATCC49619; settings: Streptococcus pneumoniae, read-out: MIC Values, D: S. pneumoniae ATCC49619
Method: as §1, §2, §3

[3] = tested on: S. aureus ATCC29213; settings: Staphylococcus aureus, read-out: MIC Values, B: S. aureus ATCC29213
Method: as §1, §2, §3

[4] = tested on: E. coli OC2605; settings: Escherichia coli
Method: as §1, §2, §3

[5] = tested on: E. faecalis ATCC29212; settings: Enterococcus faecalis, read-out: MIC Values, C: E. faecalis ATCC29212
Method: as §1, §2, §3

[6] = Table 2, 3,6-Dicarbamoyl Macrolide Derivatives
[7] = Table 2, 3,6-Dicarbamoyl Macrolide Derivatives, read-out: MIC Values, A: E. coil OC2605
[8] = Table 1, 6-Carbamoyl-3-Acyl Macrolide Derivatives
[9] = Table 1, 6-Carbamoyl-3-Acyl Macrolide Derivatives, read-out: MIC Values, A: E. coli OC2605

Compound	MIC [1, 6] [µg/mL]	MIC [2, 6] [µg/mL]	MIC [3, 6] [µg/mL]	MIC [4, 7] [µg/mL]	MIC [5, 6] [µg/mL]	MIC [1, 8] [µg/mL]	MIC [2, 8] [µg/mL]	MIC [3, 8] [µg/mL]	MIC [4, 9] [µg/mL]	MIC [5, 8] [µg/mL]
CCC(=O)O[C@H]1[C@H](C)[C@@H](O[C@@H]2O[C@H](C)C[C@H](N(C)C)[C@H]2O)[C@](C)(OC(=O)NC/C=C/c2ccc(-c3ncccn3)cc2)C[C@@H](C)C(=O)[C@H](C)[C@H]2NC(=O)O[C@]2(C)[C@@H](CC)OC(=O)[C@@H]1C [Compound 14]						4 (≈ 4.47 µM)	0.06 (≈ 0.0671 µM)	0.25 (≈ 0.28 µM)	16 (≈ 17.9 µM)	0.25 (≈ 0.28 µM)
CC[C@H]1OC(=O)[C@H](C)[C@@H](OC(=O)Cc2cccnc2)[C@H](C)[C@@H](O[C@@H]2O[C@H](C)C[C@H](N(C)C)[C@H]2O)[C@](C)(OC(=O)NC/C=C/c2cnc(C(F)(F)F)nc2)C[C@@H](C)C(=O)[C@H](C)[C@H]2NC(=O)O[C@@]21C [Compound 38]						4 (≈ 4.21 µM)	0.12 (≈ 0.126 µM)	2 (≈ 2.11 µM)	> 16	0.5 (≈ 0.527 µM)
CC[C@H]1OC(=O)[C@H](C)[C@@H](OC(=O)NC2CCCCC2)[C@H](C)[C@@H](O[C@@H]2O[C@H](C)C[C@H](N(C)C)[C@H]2O)[C@](C)(OC(=O)NC/C=C/c2ccc(-c3ncccn3)cc2)C[C@@H](C)C(=O)[C@H](C)[C@H]2NC(=O)O[C@@]21C [Compound 51]	2 (≈ 2.08 µM)	0.12 (≈ 0.125 µM)	1 (≈ 1.04 µM)	> 16	0.5 (≈ 0.519 µM)					
CC[C@H]1OC(=O)[C@H](C)[C@@H](OC(=O)C(C)C)[C@H](C)[C@@H](O[C@@H]2O[C@H](C)C[C@H](N(C)C)[C@H]2O)[C@](C)(OC(=O)NC/C=C/C=C/c2cccnc2)C[C@@H](C)C(=O)[C@H](C)[C@H]2NC(=O)O[C@@]21C [Compound 24]						2 (≈ 2.33 µM)	< 0.015	0.5 (≈ 0.583 µM)	> 16	0.25 (≈ 0.292 µM)
CC[C@H]1OC(=O)[C@H](C)[C@@H](OC(=O)Cc2cccnc2)[C@H](C)[C@@H](O[C@@H]2O[C@H](C)C[C@H](N(C)C)[C@H]2O)[C@](C)(OC(=O)NC/C=C/c2ccnc3ccccc23)C[C@@H](C)C(=O)[C@H](C)[C@H]2NC(=O)O[C@@]21C [Compound 34]						2 (≈ 2.15 µM)	0.03 (≈ 0.0323 µM)	0.5 (≈ 0.538 µM)	8 (≈ 8.6 µM)	0.25 (≈ 0.269 µM)
CC[C@H]1OC(=O)[C@H](C)[C@@H](OC(=O)Cc2cccnc2)[C@H](C)[C@@H](O[C@@H]2O[C@H](C)C[C@H](N(C)C)[C@H]2O)[C@](C)(OC(=O)NC/C=C/c2ccc(C(F)(F)F)nc2)C[C@@H](C)C(=O)[C@H](C)[C@H]2NC(=O)O[C@@]21C [Compound 36]						4 (≈ 4.22 µM)	0.06 (≈ 0.0633 µM)	1 (≈ 1.05 µM)	16 (≈ 16.9 µM)	0.25 (≈ 0.264 µM)
CC[C@H]1OC(=O)[C@H](C)[C@@H](OC(=O)Cc2ccccn2)[C@H](C)[C@@H](O[C@@H]2O[C@H](C)C[C@H](N(C)C)[C@H]2O)[C@](C)(OC(=O)NC/C=C/C=C/c2cccnc2)C[C@@H](C)C(=O)[C@H](C)[C@H]2NC(=O)O[C@@]21C [Compound 25, 2-Pyridineacetic acid, (3aS,4R,7R,8S,9S,10R, 11R,13R,15R,15aR)-4-ethyltetradecahydro-3a,7,9,11,13,15-hexamethyl-2,6,14-trioxo-11-[[[[(2E,4E)-5-(3-pyridinyl)-2,4-pentadienyl]amino]carbonyl]oxy]-10-[[3,4,6-trideoxy-3-(dimethylamino)-β-D-xylo-hexopyranosyl]oxy]-2H-oxacyclotetradecino[4,3-d]oxazol-8-yl ester]						2 (≈ 2.21 µM)	0.03 (≈ 0.0331 µM)	0.5 (≈ 0.552 µM)	8 (≈ 8.83 µM)	0.25 (≈ 0.276 µM)
CC[C@H]1OC(=O)[C@H](C)[C@@H](OC(=O)Cc2cccnc2)[C@H](C)[C@@H](O[C@@H]2O[C@H](C)C[C@H](N(C)C)[C@H]2O)[C@](C)(OC(=O)NC/C=C/c2cncnc2)C[C@@H](C)C(=O)[C@H](C)[C@H]2NC(=O)O[C@@]21C [Compound 40]						2 (≈ 2.27 µM)	0.12 (≈ 0.136 µM)	1 (≈ 1.14 µM)	> 16	0.5 (≈ 0.568 µM)
CC[C@H]1OC(=O)[C@H](C)[C@@H](OC(=O)/C=C/c2cccnc2)[C@H](C)[C@@H](O[C@@H]2O[C@H](C)C[C@H](N(C)C)[C@H]2O)[C@](C)(OC(=O)NC/C=C/c2ccc(-c3ncccn3)cc2)C[C@@H](C)C(=O)[C@H](C)[C@H]2NC(=O)O[C@@]21C [Compound 6]						> 16	0.12 (≈ 0.124 µM)	2 (≈ 2.06 µM)	> 16	1 (≈ 1.03 µM)
CC[C@H]1OC(=O)[C@H](C)[C@@H](OC(=O)Cc2cccnc2)[C@H](C)[C@@H](O[C@@H]2O[C@H](C)C[C@H](N(C)C)[C@H]2O)[C@](C)(OC(=O)NC/C=C/c2ccccc2)C[C@@H](C)C(=O)[C@H](C)[C@H]2NC(=O)O[C@@]21C [Compound 21]						2 (≈ 2.28 µM)	0.06 (≈ 0.0683 µM)	0.5 (≈ 0.569 µM)	8 (≈ 9.1 µM)	0.25 (≈ 0.284 µM)
CC[C@H]1OC(=O)[C@H](C)[C@@H](OC(=O)c2cnccn2)[C@H](C)[C@@H](O[C@@H]2O[C@H](C)C[C@H](N(C)C)[C@H]2O)[C@](C)(OC(=O)NC/C=C/c2ccc(-c3ncccn3)cc2)C[C@@H](C)C(=O)[C@H](C)[C@H]2NC(=O)O[C@@]21C [Compound 5]						8 (≈ 8.47 µM)	0.06 (≈ 0.0636 µM)	0.5 (≈ 0.53 µM)	> 16	0.5 (≈ 0.53 µM)
CC[C@H]1OC(=O)[C@H](C)[C@@H](OC(=O)/C(=N/OC)c2cccnc2)[C@H](C)[C@@H](O[C@@H]2O[C@H](C)C[C@H](N(C)C)[C@H]2O)[C@](C)(OC(=O)NC/C=C/c2ccc(-c3ncccn3)cc2)C[C@@H](C)C(=O)[C@H](C)[C@H]2NC(=O)O[C@@]21C [Compound 43]						8 (≈ 8 µM)	0.12 (≈ 0.12 µM)	1 (≈ 1 µM)	16 (≈ 16 µM)	1 (≈ 1 µM)
CC[C@H]1OC(=O)[C@H](C)[C@@H](OC(=O)Cc2ccccn2)[C@H](C)[C@@H](O[C@@H]2O[C@H](C)C[C@H](N(C)C)[C@H]2O)[C@](C)(OC(=O)NC/C=C/c2ccc(C#N)nc2)C[C@@H](C)C(=O)[C@H](C)[C@H]2NC(=O)O[C@@]21C [Compound 29]						2 (≈ 2.21 µM)	0.03 (≈ 0.0331 µM)	0.5 (≈ 0.552 µM)	16 (≈ 17.7 µM)	0.25 (≈ 0.276 µM)

The next lines start with the values.

MIC [1, 6] [µg/mL]	MIC [2, 6] [µg/mL]	MIC [3, 6] [µg/mL]	MIC [4, 7] [µg/mL]	MIC [5, 6] [µg/mL]	MIC [1, 8] [µg/mL]	MIC [2, 8] [µg/mL]	MIC [3, 8] [µg/mL]	MIC [4, 9] [µg/mL]	MIC [5, 8] [µg/mL]	Compound
4 (≈ 4.4 µM)	0.06 (≈ 0.0659 µM)	0.5 (≈ 0.549 µM)	16 (≈ 17.6 µM)	0.25 (≈ 0.275 µM)						CC[C@H]1OC(=O)[C@H](C)[C@@H](OC(=O)N(CC)CC)[C@H](C)[C@@H](O[C@@H]2O[C@H](C)C[C@H](N(C)C)[C@H]2O)[C@](C)(OC(=O)NC/C=C/c2cnc3ccccc3c2)C[C@@H](C)C(=O)[C@H](C)[C@H]2NC(=O)O[C@@]21C [Compound 59]
4 (≈ 4.27 µM)	0.06 (≈ 0.064 µM)	0.5 (≈ 0.534 µM)	16 (≈ 17.1 µM)	0.5 (≈ 0.534 µM)						CC[C@H]1OC(=O)[C@H](C)[C@@H](OC(=O)N(CC)CC)[C@H](C)[C@@H](O[C@@H]2O[C@H](C)C[C@H](N(C)C)[C@H]2O)[C@](C)(OC(=O)NC/C=C/c2ccc(-c3ncccn3)cc2)C[C@@H](C)C(=O)[C@H](C)[C@H]2NC(=O)O[C@@]21C [Compound 56]
4 (≈ 4.11 µM)	0.06 (≈ 0.0617 µM)	1 (≈ 1.03 µM)	> 16	0.5 (≈ 0.514 µM)						CC[C@H]1OC(=O)[C@H](C)[C@@H](OC(=O)N(C)c2cccnc2)[C@H](C)[C@@H](O[C@@H]2O[C@H](C)C[C@H](N(C)C)[C@H]2O)[C@](C)(OC(=O)NC/C=C/c2ccc(-c3ncccn3)cc2)C[C@@H](C)C(=O)[C@H](C)[C@H]2NC(=O)O[C@@]21C [Compound 60]
4 (≈ 4.28 µM)	0.06 (≈ 0.0642 µM)	0.5 (≈ 0.535 µM)	> 16	0.5 (≈ 0.535 µM)						CC[C@H]1OC(=O)[C@H](C)[C@@H](OC(=O)N2CCCC2)[C@H](C)[C@@H](O[C@@H]2O[C@H](C)C[C@H](N(C)C)[C@H]2O)[C@](C)(OC(=O)NC/C=C/c2ccc(-c3ncccn3)cc2)C[C@@H](C)C(=O)[C@H](C)[C@H]2NC(=O)O[C@@]21C [Compound 62]
8 (≈ 8.43 µM)	0.06 (≈ 0.0632 µM)	1 (≈ 1.05 µM)	> 16	0.5 (≈ 0.527 µM)						CC[C@H]1OC(=O)[C@H](C)[C@@H](OC(=O)N2CCCCC2)[C@H](C)[C@@H](O[C@@H]2O[C@H](C)C[C@H](N(C)C)[C@H]2O)[C@](C)(OC(=O)NC/C=C/c2ccc(-c3ncccn3)cc2)C[C@@H](C)C(=O)[C@H](C)[C@H]2NC(=O)O[C@@]21C [Compound 64]
8 (≈ 8.13 µM)	0.06 (≈ 0.061 µM)	0.5 (≈ 0.508 µM)	> 16	0.5 (≈ 0.508 µM)						CC[C@H]1OC(=O)[C@H](C)[C@@H](OC(=O)N2Cc3cccnc3C2)[C@H](C)[C@@H](O[C@@H]2O[C@H](C)C[C@H](N(C)C)[C@H]2O)[C@](C)(OC(=O)NC/C=C/c2ccc(-c3ncccn3)cc2)C[C@@H](C)C(=O)[C@H](C)[C@H]2NC(=O)O[C@@]21C [Compound 67]
